Measurements taken from the NIST ThermoML archive (doi:10.1021/je400056z).

Assay: xn = mol fraction of the nth substance listed
Conditions: Liquid, Vibrating tube method

CCCCCCCCCCCCC [tridecane] + O=C=O
Conditions	mass density [kg/m3]
353.12 K, 20000 kPa, x2 = 0.0955	732.3
353.12 K, 20000 kPa, x2 = 0.2526	735.2
353.12 K, 21000 kPa, x2 = 0.0955	733.1
353.12 K, 21000 kPa, x2 = 0.2526	736
353.12 K, 22000 kPa, x2 = 0.0955	733.9
353.12 K, 22000 kPa, x2 = 0.2526	736.8
353.12 K, 23000 kPa, x2 = 0.0955	734.6
353.12 K, 23000 kPa, x2 = 0.2526	737.6
353.12 K, 24000 kPa, x2 = 0.0955	735.4
353.12 K, 24000 kPa, x2 = 0.2526	738.5
353.12 K, 25000 kPa, x2 = 0.0955	736.1
353.12 K, 25000 kPa, x2 = 0.2526	739.2
353.13 K, 17000 kPa, x2 = 0.8978	677.4
353.13 K, 18000 kPa, x2 = 0.8978	689.5
353.13 K, 20000 kPa, x2 = 0.8978	712.3
353.13 K, 21000 kPa, x2 = 0.8978	721.9
353.13 K, 22000 kPa, x2 = 0.8978	730.6
353.13 K, 23000 kPa, x2 = 0.8978	738.3
353.13 K, 24000 kPa, x2 = 0.8978	745.5
353.13 K, 25000 kPa, x2 = 0.8978	752.2
353.15 K, 8000 kPa, x2 = 0.5259	729.7
353.15 K, 9000 kPa, x2 = 0.5259	731.2
353.15 K, 10000 kPa, x2 = 0.5259	732.7
353.15 K, 11000 kPa, x2 = 0.5259	734.2
353.15 K, 12000 kPa, x2 = 0.5259	735.6
353.15 K, 13000 kPa, x2 = 0.5259	737
353.15 K, 14000 kPa, x2 = 0.5259	738.3
353.15 K, 15000 kPa, x2 = 0.5259	739.7
353.15 K, 16000 kPa, x2 = 0.5259	741
353.15 K, 17000 kPa, x2 = 0.5259	742.3
353.15 K, 18000 kPa, x2 = 0.5259	743.6
353.15 K, 19000 kPa, x2 = 0.5259	744.9
353.15 K, 20000 kPa, x2 = 0.5259	746
353.15 K, 21000 kPa, x2 = 0.5259	747.3
353.15 K, 22000 kPa, x2 = 0.5259	748.4
353.15 K, 23000 kPa, x2 = 0.5259	749.6
353.15 K, 24000 kPa, x2 = 0.5259	750.6
353.15 K, 25000 kPa, x2 = 0.5259	751.8
353.35 K, 16000 kPa, x2 = 0.7549	739.7
353.35 K, 17000 kPa, x2 = 0.7549	742.7
353.35 K, 18000 kPa, x2 = 0.7549	745.7
353.35 K, 19000 kPa, x2 = 0.7549	748.7
353.35 K, 20000 kPa, x2 = 0.7549	751.8
353.35 K, 21000 kPa, x2 = 0.7549	754.9
353.35 K, 22000 kPa, x2 = 0.7549	757.9
353.35 K, 23000 kPa, x2 = 0.7549	760.8
353.35 K, 24000 kPa, x2 = 0.7549	763.8
353.35 K, 25000 kPa, x2 = 0.7549	766.7
363.07 K, 19000 kPa, x2 = 0.8978	671.9
363.07 K, 20000 kPa, x2 = 0.8978	681
363.07 K, 21000 kPa, x2 = 0.8978	691.1
363.07 K, 22000 kPa, x2 = 0.8978	700.8
363.07 K, 23000 kPa, x2 = 0.8978	709.5
363.07 K, 24000 kPa, x2 = 0.8978	717.3
363.07 K, 25000 kPa, x2 = 0.8978	724.8
363.11 K, 9000 kPa, x2 = 0.0955	715.7
363.11 K, 9000 kPa, x2 = 0.2526	717.4
363.11 K, 10000 kPa, x2 = 0.0955	716.7
363.11 K, 10000 kPa, x2 = 0.2526	718.4
363.11 K, 10000 kPa, x2 = 0.5259	723
363.11 K, 11000 kPa, x2 = 0.0955	717.7
363.11 K, 11000 kPa, x2 = 0.2526	719.5
363.11 K, 11000 kPa, x2 = 0.5259	724.6
363.11 K, 12000 kPa, x2 = 0.0955	718.7
363.11 K, 12000 kPa, x2 = 0.2526	720.5
363.11 K, 12000 kPa, x2 = 0.5259	726.2
363.11 K, 13000 kPa, x2 = 0.0955	719.6
363.11 K, 13000 kPa, x2 = 0.2526	721.5
363.11 K, 13000 kPa, x2 = 0.5259	727.6
363.11 K, 14000 kPa, x2 = 0.0955	720.5
363.11 K, 14000 kPa, x2 = 0.2526	722.6
363.11 K, 14000 kPa, x2 = 0.5259	729.2
363.11 K, 15000 kPa, x2 = 0.0955	721.5
363.11 K, 15000 kPa, x2 = 0.2526	723.6
363.11 K, 15000 kPa, x2 = 0.5259	730.6
363.11 K, 16000 kPa, x2 = 0.0955	722.4
363.11 K, 16000 kPa, x2 = 0.2526	724.6
363.11 K, 16000 kPa, x2 = 0.5259	732
363.11 K, 17000 kPa, x2 = 0.0955	723.3
363.11 K, 17000 kPa, x2 = 0.2526	725.5
363.11 K, 17000 kPa, x2 = 0.5259	733.4
363.11 K, 18000 kPa, x2 = 0.0955	724.1
363.11 K, 18000 kPa, x2 = 0.2526	726.4
363.11 K, 18000 kPa, x2 = 0.5259	734.7
363.11 K, 19000 kPa, x2 = 0.0955	725
363.11 K, 19000 kPa, x2 = 0.2526	727.4
363.11 K, 19000 kPa, x2 = 0.5259	736
363.11 K, 20000 kPa, x2 = 0.0955	725.8
363.11 K, 20000 kPa, x2 = 0.2526	728.3
363.11 K, 20000 kPa, x2 = 0.5259	737.3
363.11 K, 21000 kPa, x2 = 0.0955	726.6
363.11 K, 21000 kPa, x2 = 0.2526	729.2
363.11 K, 21000 kPa, x2 = 0.5259	738.6
363.11 K, 22000 kPa, x2 = 0.0955	727.5
363.11 K, 22000 kPa, x2 = 0.2526	730.1
363.11 K, 22000 kPa, x2 = 0.5259	739.9
363.11 K, 23000 kPa, x2 = 0.0955	728.3
363.11 K, 23000 kPa, x2 = 0.2526	731
363.11 K, 23000 kPa, x2 = 0.5259	741.1
363.11 K, 24000 kPa, x2 = 0.0955	729.1
363.11 K, 24000 kPa, x2 = 0.2526	731.8
363.11 K, 24000 kPa, x2 = 0.5259	742.3
363.11 K, 25000 kPa, x2 = 0.0955	729.9
363.11 K, 25000 kPa, x2 = 0.2526	732.7
363.11 K, 25000 kPa, x2 = 0.5259	743.4
363.34 K, 16000 kPa, x2 = 0.7549	720.1
363.34 K, 17000 kPa, x2 = 0.7549	724.7
363.34 K, 18000 kPa, x2 = 0.7549	728.3
363.34 K, 19000 kPa, x2 = 0.7549	730.8
363.34 K, 20000 kPa, x2 = 0.7549	734.2
363.34 K, 21000 kPa, x2 = 0.7549	737.3
363.34 K, 22000 kPa, x2 = 0.7549	740.5
363.34 K, 23000 kPa, x2 = 0.7549	743.8
363.34 K, 24000 kPa, x2 = 0.7549	746.9
363.34 K, 25000 kPa, x2 = 0.7549	750.1
